In patent US8859580B2 (Boehringer Ingelheim International GmbH, priority 2007, dated 2014):

biological target: T1, 11β-HSD1 (Homo sapiens, UniProt P28845); experiment: In vitro inhibition of 11β-HSD1, HTRF detection of cortisol generated from cortisone by human liver microsomes; type: biochemical; conditions: 11β-HSD IC50 (nM), 1 hour at 37° C., pH 6.0, NADPH 200 μM, cortisone 80 nM, inhibition relative to carbenoxolone signal
T1 construct: detecting cortisol generated from cortisterone by human liver microsomes; from tissue; host or cells: human liver microsomes
How it was run: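 Cortisol formed from cortisone by human liver microsomes quantified by competitive HTRF immunoassay (XL665-cortisol, Eu-cryptate anti-cortisol antibody), 2 h detection, Em665/Em615 ratio converted via cortisol calibration curve. Percent inhibition relative to carbenoxolone signal; IC50 from curves.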

T1 sequence (P28845 whole entry): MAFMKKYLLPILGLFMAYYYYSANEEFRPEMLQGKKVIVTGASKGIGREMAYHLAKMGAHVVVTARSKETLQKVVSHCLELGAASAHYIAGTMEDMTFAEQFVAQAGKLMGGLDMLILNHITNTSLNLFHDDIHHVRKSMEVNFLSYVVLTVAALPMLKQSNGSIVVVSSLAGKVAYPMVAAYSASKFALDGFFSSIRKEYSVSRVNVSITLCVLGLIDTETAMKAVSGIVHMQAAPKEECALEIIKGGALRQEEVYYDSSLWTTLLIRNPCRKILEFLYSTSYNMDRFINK

SMILES | IC50 [nM]
CC1(C)[C@H]2Cc3cc4nc(C5CC5)[nH]c4cc3[C@]1(C)CCN2C(=O)c1ccc2nc[nH]c2c1 [Example 271, (3H-Benzoimidazol-5-yl)-[(6R,10S)-2-cyclopropyl-5,6,7,8,9,10-hexahydro-10,12,12-trimethyl-6,10-methano-imidazo[5,4-i][3]benzazocin-7-yl]-methanone] | 50
CC1(C)[C@H]2Cc3cc4oc(C5CC5)nc4cc3[C@]1(C)CCN2C(=O)c1ccc2nc[nH]c2c1 [Example 302, (3H-Benzoimidazol-5-yl)-[(6R,10S)-2-cyclopropyl-5,6,7,8,9,10-hexahydro-10,12,12-trimethyl-6,10-methano-oxazolo[4,5-i][3]benzazocin-7-yl]-methanone] | 35
CC12CCN(C(=O)c3ccc4[nH]cnc4c3)C(Cc3cc(/C(N)=N/O)ccc31)C2(C)C (centres unmarked) [Example 175, 3-(1H-Benzoimidazole-5-carbonyl)-N-hydroxy-6,11,11-trimethyl-1,2,3,4,5,6-hexahydro-2,6-methano-benzo[d]azocine-9-carboxamidine] | 344
CC1(C)[C@H]2Cc3c(O)cccc3[C@]1(C)CCN2C(=O)c1n[nH]c2ccccc12 [Example 192, [(2R,6S)-10-Hydroxy-6,11,11-trimethyl-1,2,5,6-tetrahydro-4H-2,6-methano-benzo[d]azocin-3-yl]-(1H-indazol-3-yl)-methanone] | 434
Cc1ccoc1C(=O)N1CC[C@@]2(C)c3cc(O)ccc3C[C@@H]1[C@@H]2C [Example 112, [(2R,6R,11R)-8-Hydroxy-6,11-dimethyl-1,2,5,6-tetrahydro-4H-2,6-methano-benzo[d]azocin-3-yl]-(3-methyl-furan-2-yl)-methanone] | 1230
CC1(C)[C@H]2Cc3c(O)cccc3[C@]1(C)CCN2C(=O)c1cncn1-c1ccccc1 [Example 218, [(2R,6S)-10-Hydroxy-6,11,11-trimethyl-1,2,5,6-tetrahydro-4H-2,6-methano-benzo[d]azocin-3-yl]-(3-phenyl-3H-imidazol-4-yl)-methanone] | 2710
CC12CCN(C(=O)c3ccc4nc[nH]c4c3)C(Cc3cc(CN)ccc31)C2(C)C (centres unmarked) [Example 173, (9-Aminomethyl-6,11,11-trimethyl-1,2,5,6-tetrahydro-4H-2,6-methano-benzo[d]azocin-3-yl)-(3H-benzoimidazol-5-yl)-methanone] | 1690
CC[C@]12CCN(C(=O)c3ccc4nc[nH]c4c3)[C@H](Cc3ccc(O)cc31)[C@H]2C (racemic) [Example 200, (3H-Benzoimidazol-5-yl)-(6-ethyl-8-hydroxy-11-methyl-1,2,5,6-tetrahydro-4H-2,6-methano-benzo[d]azocin-3-yl)-methanone] | 117
N#CC12CCN(C(=O)c3ccc4ncsc4c3)C(Cc3ccc(O)cc31)C2 (centres unmarked) [Example 177, 3-(Benzothiazole-6-carbonyl)-8-hydroxy-2,3,4,5-tetrahydro-1H-2,6-methano-benzo[d]azocine-6-carbonitrile] | 8910
CC1(C)[C@H]2Cc3c(O)cccc3[C@]1(C)CCN2C(=O)c1n[nH]c2c1CCC2 [Example 220, [(2R,6S)-10-Hydroxy-6,11,11-trimethyl-1,2,5,6-tetrahydro-4H-2,6-methano-benzo[d]azocin-3-yl]-(1,4,5,6-tetrahydro-cyclopentapyrazol-3-yl)-methanone] | 549
C[C@@H]1[C@H]2Cc3cc(C#N)c(O)cc3[C@]1(C)CCN2C(=O)c1ccc2nc[nH]c2c1 [Example 223, (2R,6R,11S)-3-(3H-Benzoimidazole-5-carbonyl)-8-hydroxy-6,11-dimethyl-1,2,3,4,5,6-hexahydro-2,6-methano-benzo[d]azocine-9-carbonitrile] | 106
Cc1cc2c(cc1O)C[C@@H]1N(C(=O)c3ccc4nc[nH]c4c3)CC[C@@]2(C)C1(C)C (stereo in doubt) [Example 68, (3H-Benzoimidazol-5-yl)-[(2S,6R)-9-hydroxy-6,8,11,11-tetramethyl-1,2,5,6-tetrahydro-4H-2,6-methano-benzo[d]azocin-3-yl]-methanone] | 372
COc1cccc2c1C[C@H]1N(C(=O)c3ccc4nc[nH]c4c3)CC[C@]2(C)C1(C)C [Example 76, (3H-Benzoimidazol-5-yl)-[(2R,6S)-10-methoxy-6,11,11-trimethyl-1,2,5,6-tetrahydro-4H-2,6-methano-benzo[d]azocin-3-yl]-methanone] | 166
Cc1nc2cc3c(cc2n1C)[C@]1(C)CCN(C(=O)c2ccc4nc[nH]c4c2)[C@H](C3)C1(C)C [Example 242, (3H-Benzoimidazol-5-yl)-[(6R,10S)-5,6,7,8,9,10-hexahydro-1,2,10,12,12-pentamethyl-6,10-methano-imidazo[5,4-i][3]benzazocin-7-yl]-methanone] | 547
Cc1nc2cc3c(cc2o1)[C@]1(C)CCN(C(=O)c2ccc4nc[nH]c4c2)[C@H](C3)[C@H]1C [Example 305, (3H-Benzoimidazol-5-yl)-[(6R,10R,12S)-5,6,7,8,9,10-hexahydro-2,10,12-trimethyl-6,10-methano-oxazolo[5,4-i][3]benzazocin 7-yl]-methanone] | 153
CC1(C)[C@H]2Cc3ccccc3[C@]1(C)CCN2C(=O)c1cc(F)c(F)c(F)c1 [Example 297, (3,4,5-Trifluoro-phenyl)-[(2R,6S)-6,11,11-trimethyl-1,2,5,6-tetrahydro-4H-2,6-methano-benzo[d]azocin-3-yl]-methanone] | 895
CN(C)C(=O)c1ccc2c(c1)CC1N(C(=O)c3ccc4nc[nH]c4c3)CCC2(C)C1(C)C (centres unmarked) [Example 161, 3-(3H-Benzoimidazole-5-carbonyl)-6,11,11-trimethyl-1,2,3,4,5,6-hexahydro-2,6-methano-benzo[d]azocine-9-carboxylic acid dimethylamide] | 1750
CC(=O)c1ccc(C(=O)N2CC[C@@]3(C)c4ccccc4C[C@@H]2C3(C)C)cc1 [Example 299] | 352
C[C@@H]1[C@H]2Cc3ccc(-c4ccccc4)cc3[C@]1(C)CCN2C(=O)c1ccc2nc[nH]c2c1 [Example 249, (3H-Benzoimidazol-5-yl)-[(2R,6R,11S)-6,11-dimethyl-8-phenyl-1,2,5,6-tetrahydro-4H-2,6-methano-benzo[d]azocin-3-yl)-methanone] | 265
Cc1occc1C(=O)N1CC[C@@]2(C)c3cccc(O)c3C[C@@H]1C2(C)C [Example 180, [(2R,6S)-10-Hydroxy-6,11,11-trimethyl-1,2,5,6-tetrahydro-4H-2,6-methano-benzo[d]azocin-3-yl]-(2-methyl-furan-3-yl)-methanone] | 1320

same assay, conditions: 1 hour at 37° C., pH 6.0, NADPH 200 μM, cortisone 80 nM, inhibition relative to carbenoxolone signal, read-out: 11β-HSD IC50

SMILES | IC50 [nM]
O=C(c1ccc2nc[nH]c2c1)N1CC[C@@H]2C[C@H]1Cc1cccnc12 (racemic) [Example 325, (3H-Benzoimidazol-5-yl)-(5,8,9,10-tetrahydro-6H-6,10-methano-pyrido[3,2-d]azocin-7-yl)-methanone] | 771
Cn1cc(C2=NC3=CC4=C(CC3=N2)C[C@H]2N(C(=O)c3ccc5nc[nH]c5c3)CC[C@]4(C)C2(C)C)ccc1=O [Example 272, (3H-Benzoimidazol-5-yl)-[(6R,10S)-5,6,7,8,9,10-hexahydro-10,12,12-trimethyl-2-(1-methyl-6-oxo-1,6-dihydro-pyridin-3-yl)-6,10-methano-imidazo[5,4-i][3]benzazocin-7-yl]-methanone] | 44
O=C(c1ccc2nc[nH]c2c1)N1CCC2CC1Cc1c2[nH]c2ccccc12 (centres unmarked) [Example 245, (3H-Benzoimidazol-5-yl)-(2,3,4,5,6,7-hexahydro-2,6-methano-azocino[5,4-b]indol-3-yl)-methanone] | 257
